Key:
[1] = tested on: mice subjected to chronic mild stress (CMS); assay: Alcohol consumption in mice subjected to chronic mild stress (CMS); assay type: in vivo, mouse; conditions: for alcohol consumption: mice subjected to chronic mild stress (CMS); for CB2R agonist or antagonist effect on alcohol consumption: normal mice not subjected to CMS
Source text: The involvement of brain neuronal CB2Rs in drug abuse and depression is studied by using the conditional ko mice of the invention. Mice preferring alcohol have reduced Cnr2 gene expression in the ventral midbrain whereas the Cnr2 gene expression is unaltered in the ventral midbrain region of mice with little or no preference for alcohol. […] This CB2R agonist or antagonist effect is absent in normal mice that were not subjected to CMS.

CB2R = target: T1, CB2R (Mus musculus, UniProt P47936); assay: Early and pretreatment with CB2R agonist in stroke; assay type: in vivo
T1 construct: from tissue; host or cells: living mouse; brain (microglia and neurons) after stroke
Source text: Optimal treatment time with CB2R agonist for anti-inflammation and neurodegeneration is studied after stroke. […] Using Cx3crl-Cnr2 and Nestin-Cnr2 pre-clinical mouse models of stroke timed experiments by administering the commercially available CB2R agonist […] at specific time points post infarct at selected doses provides data to evaluate compounds for this use. The CB2R molecular pathways and partners in stroke studied in microglia and neural progenitor cells (NPC) on different post stroke days are evaluated when various compounds are tested. Such microglia and neuron specific CB2Rs-KO stroke behavioral models allow precise mapping of CB2R selective agonist (e.g. JWH133) for potential protective roles in stroke.

Cnr2 gene transcripts = assay: Expression of Cnr2 gene transcripts in rodents treated with abused substances; assay type: in vivo; conditions: treated animals in comparison to controls
BTBR mice = assay: Behavioral effects of THC in a mouse model of depression (time and number of immobility); assay type: in vivo; conditions: BTBR mice (autism-like phenotype) compared to control mice; FIG. 1
Source text: FIG. 1. Behavioral effects THC in a mouse model of depression: The time and number of immobility in the test is the index measured.

T1 sequence (P47936 whole entry): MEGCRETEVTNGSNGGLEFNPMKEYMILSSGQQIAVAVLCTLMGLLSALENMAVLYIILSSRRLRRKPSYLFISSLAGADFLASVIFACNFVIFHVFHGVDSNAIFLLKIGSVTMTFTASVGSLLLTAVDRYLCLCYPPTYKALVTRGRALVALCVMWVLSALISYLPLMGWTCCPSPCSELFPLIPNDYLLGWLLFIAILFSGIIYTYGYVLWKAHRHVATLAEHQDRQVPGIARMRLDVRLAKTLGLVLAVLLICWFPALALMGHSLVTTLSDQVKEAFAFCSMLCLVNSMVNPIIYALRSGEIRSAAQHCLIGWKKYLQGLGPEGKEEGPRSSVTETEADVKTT

SMILES: COc1ccc(C(=O)c2c(C)n(CCN3CCOCC3)c3cc(I)ccc23)cc1 [AM630]
- alcohol consumption [1]: reduces the stress-induced increase in alcohol consumption
- CB2R agonist or antagonist effect on alcohol consumption [1]: absent

SMILES: CCCC(C)(C)c1ccc2c(c1)OC(C)(C)[C@@H]1CC=C(C)C[C@@H]21 [JWH133]
- brain infarct volumes (CB2R): significantly reduce
- neurological deficits (CB2R): significantly reduce

SMILES: CN1CCCCC1Cn1cc(C(=O)c2cc([N+](=O)[O-])ccc2I)c2ccccc21 (stereo not shown) [AM1241]
- brain infarct volumes (CB2R): significantly reduce
- neurological deficits (CB2R): significantly reduce

SMILES: CCCn1c(C)c(C(=O)c2cccc3ccccc23)c2ccccc21 [JWH 015]
- alcohol consumption [1]: enhances alcohol consumption
- CB2R agonist or antagonist effect on alcohol consumption [1]: absent

SMILES: CC(=O)Oc1ccc2c3c1O[C@H]1[C@@H](OC(C)=O)C=C[C@H]4[C@@H](C2)N(C)CC[C@@]341 [heroin]
- Cnr2 gene transcripts in the brain (Cnr2 gene transcripts): increased Cnr2 gene transcripts

SMILES: CCCCCc1cc(O)c2c(c1)OC(C)(C)[C@@H]1CCC(C)=C[C@@H]21 [THC, tetrahydrocannabinol]
- Behavioral effects of THC: time and number of immobility (BTBR mice): BTBR mice are insensitive to the effects of THC

Source: US20190029238A1, “[…]” (William Paterson University Of New Jersey, priority 2015, published 2019)
